Source: patent US20240041042A1, “1-(PYRIDYL)-5-AZINYLPYRAZOLE DERIVATIVES, AND THEIR USE FOR CONTROL OF UNDESIRED PLANT GROWTH” (Bayer Aktiengesellschaft, priority 2020, published 2024)
Where two headings read alike, the source gives them in different places.

How the values were obtained:
Type in all cases: in vivo
[1] = test system: Oryza sativa (ORYSA); conditions: crop plant compatibility, effect in comparison to untreated controls
Outline: (§1)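 Effects were read visually as % versus untreated controls (0% = no effect, 100% = death) about 3 weeks post-treatment. Application was a post-emergence spray at the one-leaf stage of WP/EC formulations with 0.5% additive at 600 l/ha. Different dosages are denoted a, b and c.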

[2] = test system: Zea mays (ZEAMX); conditions: crop plant compatibility, effect vs untreated controls
Outline: as §1

[3] = test system: Triticum aestivum (TRZAS); conditions: crop plant compatibility, 80 g/ha, effect vs untreated controls
Outline: as §1

[4] = test system: Oryza sativa (ORYSA); conditions: pre-emergence, crop plant compatibility, in comparison to untreated controls
Outline: (§2)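 Scoring: visual, % of untreated control, about 3 weeks after a pre-emergence application to the soil surface. Application used WP or EC formulations diluted in water with 0.5% additive at 600 l/ha; dosage levels are marked by suffixes a, b and c.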

[5] = test system: Brassica napus (BRSNW); conditions: crop plant compatibility, in comparison to untreated controls
Outline: as §2

[6] = test system: Glycine max (GLXMA); conditions: pre-emergence, crop plant compatibility, in comparison to untreated controls
Outline: as §2

[7] = test system: Zea mays (ZEAMX); conditions: pre-emergence, crop plant compatibility, in comparison to untreated controls
Outline: as §2

[8] = test system: Pharbitis purpurea (PHBPU); experiment: Post-emergence herbicidal action against PHBPU; conditions: dosage 320 g/ha
Outline: (§3)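 Doses of 320 g/ha or lower, suffixes a, b and c marking different dosages, were applied post-emergence at the one-leaf stage in 600 l/ha water with 0.5% additive. Damage was assessed visually after about 3 weeks in the greenhouse.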

[9] = test system: Setaria viridis (SETVI); experiment: Post-emergence herbicidal action against SETVI; conditions: dosage 320 g/ha
Outline: as §3

[10] = test system: Amaranthus retroflexus (AMARE); experiment: Post-emergence herbicidal action against AMARE; conditions: 320 g/ha, visual rating about 3 weeks after treatment
Outline: as §3

[11] = test system: Lolium rigidum (LOLRI); experiment: Post-emergence herbicidal action against LOLRI; conditions: dosage 320 g/ha
Outline: as §3

[12] = test system: Avena fatua (AVEFA); experiment: Post-emergence herbicidal action against AVEFA; conditions: 320 g/ha, visual rating about 3 weeks after treatment
Outline: as §3

[13] = test system: Polygonum convolvulus (POLCO); experiment: Pre-emergence herbicidal action against POLCO; conditions: dosage 320 g/ha
Outline: (§4)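 Read-out is visual percent damage relative to untreated pots, with 100% meaning dead plants and 0% meaning no difference, assessed roughly three weeks after treatment. Compounds were applied pre-emergence to the covering soil at up to 320 g/ha.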

[14] = test system: Alopecurus myosuroides (ALOMY); experiment: Pre-emergence herbicidal action against ALOMY; conditions: 320 g/ha; scored visually after about 3 weeks; 100% = plants have died
Outline: as §4

[15] = test system: Avena fatua (AVEFA); experiment: Pre-emergence herbicidal action against AVEFA; conditions: 320 g/ha, visual scoring after about 3 weeks vs untreated controls
Outline: as §4

[16] = test system: Viola tricolor (VIOTR); experiment: Pre-emergence herbicidal action against VIOTR; conditions: 320 g/ha, Viola tricolor
Outline: as §4

[17] = test system: Alopecurus myosuroides (ALOMY); experiment: Post-emergence herbicidal action against ALOMY; conditions: 320 g/ha, visual rating about 3 weeks after treatment vs untreated controls (100% = plants have died, 0% = like control plants)
Outline: as §3

[18] = test system: Echinochloa crus-galli (ECHCG); experiment: Post-emergence herbicidal action against ECHCG; conditions: dosage 320 g/ha
Outline: as §3

[19] = test system: Lolium rigidum (LOLRI); experiment: Pre-emergence herbicidal action against LOLRI; conditions: dosage 320 g/ha
Outline: as §4

Post-emergence action against ORYSA in % ([1]; 80 g/ha) | Post-emergence action against ORYSA in % ([1]; 320 g/ha) | Post-emergence action against ZEAMX in % ([2]; 80 g/ha) | Post-emergence action against ZEAMX in % ([2]; 320 g/ha) | Post-emergence action against TRZAS in % [3] | Pre-emergence action against ORYSA in % ([4]; 80 g/ha) | Pre-emergence action against ORYSA in % ([4]; 320 g/ha) | Pre-emergence action against BRSNW in % ([5]; 80 g/ha) | Pre-emergence action against BRSNW in % ([5]; 320 g/ha) | Pre-emergence action against GLXMA in % ([6]; 80 g/ha) | Pre-emergence action against ZEAMX in % ([7]; 80 g/ha) | Pre-emergence action against ZEAMX in % ([7]; 320 g/ha) | SMILES | Post-emergence action against PHBPU in % [8] | Post-emergence action against LOLRI in % [11] | Post-emergence action against ECHCG in % [18] | further results
0% | 0% | 20% | 20% | 20% | 0% | 0% | 0% | 20% | 20% | 0% | 10% | CCOC(=O)COc1nn(-c2ncccc2OC)c(-c2ccc(F)nc2)c1Br [Example I-371] | 80% | 90% | – | Post-emergence action against SETVI in % [9]: 80%; Post-emergence action against AMARE in % [10]: 80%
0% | – | 20% | – | – | 0% | – | 0% | – | 0% | 20% | – | CCOC(=O)C(C)Oc1nn(-c2ccccn2)c(-c2ccc(F)nc2)c1Br (racemic) [Example I-58] | 80% | 80% | 80% | Post-emergence action against AVEFA in % [12]: 90%; Pre-emergence action against POLCO in % [13]: 90%; Pre-emergence action against ALOMY [14]: 90%; Pre-emergence action against AVEFA in % [15]: 80%; Pre-emergence action against VIOTR in % [16]: 80%; Post-emergence action against ALOMY in % [17]: 90%; Pre-emergence action against LOLRI in % [19]: 80%
0% | 0% | 0% | 0% | 0% | 0% | 20% | 0% | – | 0% | 0% | 10% | COc1cccnc1-n1nc(OCC(=O)O)c(Cl)c1-c1ccc(F)nc1 [Example I-329] | 80% | – | – | –
0% | 0% | 0% | 0% | 0% | – | – | 0% | 20% | 0% | 0% | 0% | COc1cccnc1-n1nc(OCC(=O)O)c(Br)c1-c1ccc(F)nc1 [Example I-363] | 80% | – | 80% | Pre-emergence action against GLXMA in % ([6]; 320 g/ha): 0%
